In article PMC4206749 (Toxicological Research, 2014):

What was measured:
Type in all cases: cell-based
[1] = tested on: Salmonella typhimurium strain TA98; experiment: Bacterial reverse mutation assay
[2] = tested on: Salmonella typhimurium strain TA1537; experiment: Bacterial reverse mutation assay
[3] = tested on: CHL cells (Chinese hamster lung fibroblast cell line); experiment: In vitro chromosomal aberration assay; conditions: S9 (+), 6~18 hr; for Gap / Numerical aberrations, PP + ER / Structural aberrations, Chromatid type, ctb / Structural aberrations, Chromatid type, cte / Structural aberrations, Chromosome type, csb / Structural aberrations, Chromosome type, cse / Structural aberrations, Others: 200 cells

Oc1ccc(-c2ccc3cc(O)ccc3c2)c(O)c1 [HS-1793, 4-(6-hydroxy-2-naphthyl)-1,3-benzenediol]
Number of reverse mutants/plate (Mean ± SD) ([1]; TA98, with S9 activation, 78.1 μg/plate): 40 ± 4 reverse mutants/plate
Number of reverse mutants/plate (Mean ± SD) ([1]; TA98, with S9 activation, 312.5 μg/plate): 43 ± 8 reverse mutants/plate
Number of reverse mutants/plate (Mean ± SD) ([1]; TA98, with S9 activation, 625 μg/plate): 42 ± 4 reverse mutants/plate
Number of reverse mutants/plate (Mean ± SD) ([1]; TA98, with S9 activation, 1,250 μg/plate): 43 ± 4 reverse mutants/plate
Number of reverse mutants/plate (Mean ± SD) ([1]; TA98, with S9 activation, 2,500 μg/plate): 44 ± 4 reverse mutants/plate
Number of reverse mutants/plate (Mean ± SD) ([1]; TA98, with S9 activation, 5,000 μg/plate): 33 ± 2 reverse mutants/plate
Number of reverse mutants/plate (Mean ± SD) ([1]; TA98, without S9 activation, 78.1 μg/plate): 29 ± 2 reverse mutants/plate
Number of reverse mutants/plate (Mean ± SD) ([1]; TA98, without S9 activation, 156.3 μg/plate): 27 ± 2 reverse mutants/plate
Number of reverse mutants/plate (Mean ± SD) ([1]; TA98, without S9 activation, 312.5 μg/plate): 30 ± 4 reverse mutants/plate
Number of reverse mutants/plate (Mean ± SD) ([1]; TA98, without S9 activation, 625 μg/plate): 26 ± 3 reverse mutants/plate
Number of reverse mutants/plate (Mean ± SD) ([1]; TA98, without S9 activation, 1,250 μg/plate): 25 ± 2 reverse mutants/plate
Number of reverse mutants/plate (Mean ± SD) ([1]; TA98, without S9 activation, 2,500 μg/plate): 28 ± 1 reverse mutants/plate
Number of reverse mutants/plate (Mean ± SD) ([1]; TA98, without S9 activation, 5,000 μg/plate): 27 ± 3 reverse mutants/plate
Number of reverse mutants/plate (Mean ± SD) ([2]; TA1537, with S9 activation, 78.1 μg/plate): 16 ± 2 reverse mutants/plate
Number of reverse mutants/plate (Mean ± SD) ([2]; TA1537, with S9 activation, 156.3 μg/plate): 14 ± 2 reverse mutants/plate
Number of reverse mutants/plate (Mean ± SD) ([2]; TA1537, with S9 activation, 312.5 μg/plate): 15 ± 5 reverse mutants/plate
Number of reverse mutants/plate (Mean ± SD) ([2]; TA1537, with S9 activation, 625 μg/plate): 14 ± 2 reverse mutants/plate
Number of reverse mutants/plate (Mean ± SD) ([2]; TA1537, with S9 activation, 1,250 μg/plate): 14 ± 1 reverse mutants/plate
Number of reverse mutants/plate (Mean ± SD) ([2]; TA1537, with S9 activation, 2,500 μg/plate): 16 ± 3 reverse mutants/plate
Number of reverse mutants/plate (Mean ± SD) ([2]; TA1537, with S9 activation, 5,000 μg/plate): 15 ± 2 reverse mutants/plate
Number of reverse mutants/plate (Mean ± SD) ([2]; TA1537, without S9 activation, 78.1 μg/plate): 14 ± 2 reverse mutants/plate
Number of reverse mutants/plate (Mean ± SD) ([2]; TA1537, without S9 activation, 156.3 μg/plate): 17 ± 6 reverse mutants/plate
Number of reverse mutants/plate (Mean ± SD) ([2]; TA1537, without S9 activation, 312.5 μg/plate): 13 ± 4 reverse mutants/plate
Number of reverse mutants/plate (Mean ± SD) ([2]; TA1537, without S9 activation, 625 μg/plate): 14 ± 3 reverse mutants/plate
Number of reverse mutants/plate (Mean ± SD) ([2]; TA1537, without S9 activation, 1,250 μg/plate): 15 ± 6 reverse mutants/plate
Number of reverse mutants/plate (Mean ± SD) ([2]; TA1537, without S9 activation, 2,500 μg/plate): 18 ± 1 reverse mutants/plate
Number of reverse mutants/plate (Mean ± SD) ([2]; TA1537, without S9 activation, 5,000 μg/plate): 13 ± 2 reverse mutants/plate
Growth index ([3]; 6.25 μg/ml): 98%
Total frequency (+) Gap ([3]; 6.25 μg/ml): 1.5%
Total frequency (−) Gap ([3]; 6.25 μg/ml): 1%
Gap ([3]; 6.25 μg/ml): 1
Numerical aberrations, PP + ER ([3]; 6.25 μg/ml): 0
Structural aberrations, Chromatid type, ctb ([3]; 6.25 μg/ml): 1
Structural aberrations, Chromatid type, cte ([3]; 6.25 μg/ml): 1
Structural aberrations, Chromosome type, csb ([3]; 6.25 μg/ml): 0
Structural aberrations, Chromosome type, cse ([3]; 6.25 μg/ml): 0
Structural aberrations, Others ([3]; 6.25 μg/ml): 0
Growth index ([3]; 12.5 μg/ml): 95%
Total frequency (+) Gap ([3]; 12.5 μg/ml): 1%
Total frequency (−) Gap ([3]; 12.5 μg/ml): 0.5%
Gap ([3]; 12.5 μg/ml): 1
Numerical aberrations, PP + ER ([3]; 12.5 μg/ml): 0
Structural aberrations, Chromatid type, ctb ([3]; 12.5 μg/ml): 0
Structural aberrations, Chromatid type, cte ([3]; 12.5 μg/ml): 1
Structural aberrations, Chromosome type, csb ([3]; 12.5 μg/ml): 0
Structural aberrations, Chromosome type, cse ([3]; 12.5 μg/ml): 0
Structural aberrations, Others ([3]; 12.5 μg/ml): 0
Growth index ([3]; 25 μg/ml): 89%
Total frequency (+) Gap ([3]; 25 μg/ml): 3.5%
Total frequency (−) Gap ([3]; 25 μg/ml): 2.5%
Gap ([3]; 25 μg/ml): 2
Numerical aberrations, PP + ER ([3]; 25 μg/ml): 0
Structural aberrations, Chromatid type, ctb ([3]; 25 μg/ml): 2
Structural aberrations, Chromatid type, cte ([3]; 25 μg/ml): 3
Structural aberrations, Chromosome type, csb ([3]; 25 μg/ml): 0
Structural aberrations, Chromosome type, cse ([3]; 25 μg/ml): 0
Structural aberrations, Others ([3]; 25 μg/ml): 0
Total frequency (+) Gap ([3]; 50 μg/ml): 3%
Total frequency (−) Gap ([3]; 50 μg/ml): 2.5%
Gap ([3]; 50 μg/ml): 1
Numerical aberrations, PP + ER ([3]; 50 μg/ml): 0
Structural aberrations, Chromatid type, ctb ([3]; 50 μg/ml): 3
Structural aberrations, Chromosome type, csb ([3]; 50 μg/ml): 0
Structural aberrations, Chromosome type, cse ([3]; 50 μg/ml): 0
Structural aberrations, Others ([3]; 50 μg/ml): 0
Growth index ([3]; 100 μg/ml): 71%
Total frequency (+) Gap ([3]; 100 μg/ml): 1.5%
Total frequency (−) Gap ([3]; 100 μg/ml): 0.5%
Gap ([3]; 100 μg/ml): 2
Numerical aberrations, PP + ER ([3]; 100 μg/ml): 0
Structural aberrations, Chromatid type, ctb ([3]; 100 μg/ml): 0
Structural aberrations, Chromatid type, cte ([3]; 100 μg/ml): 1
Structural aberrations, Chromosome type, csb ([3]; 100 μg/ml): 0
